According to US12030908B2, “Antimicrobial compounds, compositions, and uses thereof” (Lakewood Amedex, Inc., priority 2017, dated 2024):
In brackets after ≈: the same amount, converted by molar mass. Read-outs that look alike come from different tables or passages of the source.

How the values were obtained:
[1] = pKa measurement; format: physicochemical; conditions: read-out: pKa
[2] = tested on: P. aeruginosa; test: Broth microdilution MIC at incremental pH, P. aeruginosa; format: cell-based; conditions: Pseudomonas aeruginosa, read-out: MIC
Procedure: (§1) MIC testing is conducted using the broth (Mueller Hinton Broth) microdilution procedures relevant to each organism group as established by the Clinical and Laboratory Standards Institute (CLSI; 3-7). MIC plates are prepared in accordance with CLSI (3-7). To prepare the test plates, automated liquid handlers are used to conduct serial dilutions and liquid transfers. Automated liquid handlers utilized in this study include the Multidrop 384 (Labsystems, Helsinki, Finland) and the Biomek 2000 (Beckman Coulter, Fullerton CA). The solution is diluted to desired pH using 1 M Citric Acid or 1 M NaOH buffer. A standardized inoculum of each test organism is prepared per CLSI methods (3, 5-7) to equal a 0.5 McFarland standard in the appropriate media followed by an additional 1:20 dilution (1:10 for anaerobes).
(§2) The plates are then inoculated with 10 μL of the diluted 0.5 McFarland suspension using the Biomek 2000 from low to high drug concentration, resulting in a final concentration of approximately 5×10^5 CFU/mL per well. An un-inoculated plate is incubated for the purpose of assessing solubility of the drug in the test media. The plates are stacked 3 to 4 high, covered with a sterile lid on the top plate, and incubated for 18 to 24 hours according to CLSI. The MIC is recorded as the lowest concentration of respective compound that inhibited visible growth of the organism.

[3] = tested on: methicillin susceptible S. aureus (ATCC 29213); test: Bacterial cytological profiling at pH 4, 5.5, 7 (Example 7), S. aureus; format: cell-based; conditions: 125 mg/mL
Procedure: (§3) This bacterial cytological profiling (BCP) investigation uses methods and materials described previously by Nonejuie, P., Burkart, M., Poglianoa, K., Pogiano, J. (2013). Bacterial cytological profiling rapidly identifies the cellular pathways targeted by antibacterial molecules. Proc. Natl. Acad. Sci. U.S.A. 110(40):16169-16174. doi: 10.1073/pnas.1311066110.
(§4) For viable cell counts, cells are grown to OD600≈0.4 and diluted 1:1 into buffered or unbuffered media containing various compound concentrations. Samples are then collected and serially diluted (1:10) on a 96 well plate. Five microliters from each well are spotted on LB plates, incubated at 30° C., and viable cells are counted the next day.
(§5) Samples are collected at 10, 30, 120, and 240 min of exposure for viable cell count and imaging. For imaging, E. coli and S. aureus 200 μL of treated cells per time point are stained with 0.8 μg/mL FM4-64, 1.5 μg/mL DAPI, and 0.4 μM SYTOXGreen (Molecular Probes/Invitrogen). P. aeruginosa samples are stained 0.4 μM SYTOX Green, 28 μg/mL DAPI, and 1 μg/mL FM 4-64. Cells are transferred to an agarose pad (20% LB, 1% agarose) for imaging.
(§6) For Nu-3 and Nu-8 stocks (at pH 4, 5.5 and 7), stock concentration is 500 mg/mL. For pH 4, the stocks are prepared by dissolving Nu-3 in 25 mM citrate buffer and Nu-8 in 350 mM citric acid. […]

[4] = tested on: E. coli; test: Broth microdilution MIC at incremental pH, E. coli; format: cell-based; conditions: Escherichia coli, read-out: MIC
Procedure: as §1, §2

[5] = tested on: wild type E. coli (ATCC 25922); test: Bacterial cytological profiling at pH 4, 5.5, 7 (Example 7), E. coli; format: cell-based; conditions: pH 5.5 and 7
Procedure: as §3, §4, §5, §6

[6] = tested on: Escherichia coli (strain CFT073, TPPS 1041); test: Initial urinary tract infection model in BALB/c mice, transurethral treatment (Example 9); format: in vivo; conditions: 50 mg/kg transurethral 24 hr post-challenge; 60 minutes post-treatment
Description: Female BALB/c mice (20-22 g) ordered from Envigo are acclimated to housing conditions and handled in accordance with Animal Use Protocol (AUP) number TP-08. Animals are fed irradiated Teklad Global 29 18 Rodent Diet and water ad libitum. Mice are housed 6/cage in static cages with irradiated ⅛″ Teklad corn cobbedding 7902 inside bioBubble® clean rooms that provide H.E.P.A filtered air into the bubble environment at 100 complete air changes per hour. The environment is controlled to a temperature range of 74°±4° F. and a humidity range of 30-70%. All procedures carried out in this experiment are conducted in compliance with the laws, regulations, and guidelines of the National Institutes of Health and with the approval of the TransPharm Preclinical Solutions Animal Care and Use Committee.
A clinical isolate of Escherichia coli (strain CFT073, TPPS 1041) are procured from the University of Michigan.
The organism is grown overnight at 37° C. in ambient atmosphere on trypticase soy agar plates supplemented with 5% sheep blood cells. The culture is aseptically swabbed and transferred to tubes of trypticase soy broth. The optical density is determined at 600 nm. The culture is diluted to provide an inoculum of approximately 7.5 log10 CFU per mouse in a volume of 30 μL. Instillation of the bacterial challenge constituted time 0 hour for the study. Inoculum counts are estimated before inoculation by optical density and confirmed after inoculation by dilution and back counts.
One hour prior to bacterial challenge, water is removed from animal cages. […]
The primary endpoint used to assess progress of the infection is mean bacterial burden per gram of urinary bladder tissue. […] Colony forming units (CFU) are enumerated and the total bacterial burden per gram of urinary bladder tissue homogenate is calculated.
The geometric mean CFU, along with standard error of the mean (SEM), are calculated using Microsoft Excel and bar charts are prepared for the data using GraphPad Prism v. […]

Molecule	pKa [1]	MIC ([2]; pH 1)	MIC ([2]; pH 3)	MIC ([2]; pH 5)	MIC ([2]; pH 7)	cell growth [3]	MIC ([4]; pH 1)	MIC ([4]; pH 3)	MIC ([4]; pH 5)	MIC ([4]; pH 7)	effect on cell permeability, cell viability and growth [5]	average bladder CFU burden [6]
COC1[C@@H](OP(=O)(O)OCCCCO)[C@@H](COP(=O)(O)OCCCCO)O[C@H]1n1ccc(=O)[nH]c1=O (stereo partly shown) [Nu-2]	2.3	–	–	–	–	–	–	–	–	–	–	–
CCCCOP(=O)(O)OC[C@H]1O[C@@H](n2cc(C)c(=O)[nH]c2=O)C[C@@H]1OP(=O)(O)OCCCC [Nu-3]	–	12.5 mg/mL (≈ 24.3 mM)	> 100 mg/mL	> 100 mg/mL	> 100 mg/mL	slight reduction in cell growth resembling that at pH 4 alone	12.5 mg/mL (≈ 24.3 mM)	> 100 mg/mL	> 100 mg/mL	> 100 mg/mL	ineffective	–
CCCCOP(=O)(O)OC[C@H]1O[C@@H](n2cc(C)c(=O)[nH]c2=O)C[C@H]1OP(=O)(O)OCCCC [Nu-4]	2.3	–	–	–	–	–	–	–	–	–	–	–
CCCCOP(=O)(O)OCCOCCOP(=O)(O)OCCCC [Nu-5]	2.28	6.25 mg/mL (≈ 16.5 mM)	100 mg/mL (≈ 264 mM)	100 mg/mL (≈ 264 mM)	100 mg/mL (≈ 264 mM)	–	6.25 mg/mL (≈ 16.5 mM)	100 mg/mL (≈ 264 mM)	100 mg/mL (≈ 264 mM)	100 mg/mL (≈ 264 mM)	–	–
gentamicin [reference compound]	–	–	–	–	–	–	–	–	–	–	–	6.1 log10 CFU
